ChEMBL document CHEMBL2406908, “Re-engineering of the duocarmycin structural architecture enables bioprecursor development targeting CYP1A1 and CYP2W1 for biological activity” (J Med Chem, 2013)
The source made the active and inactive calls. No cut-off for these calls is given here.

Key:
CYP1A1 [1] = assay: Potentiation factor, ratio of IC50 for wild type HEK293 cells to IC50 of HEK293 cells expressing CYP1A1; format: ADME, cell-based; details: human, wild type HEK293 cells and HEK293 cells expressing CYP1A1; read-out: Ratio IC50
HEK293 [2] = assay: Antiproliferative activity against human HEK293 cells expressing CYP2W1 assessed as growth inhibition after 96 hrs by MTT assay; format: functional, cell-based; details: HEK293, 96 h
CHO [3] = assay: Antiproliferative activity against CHO cells expressing CYP1A1 assessed as growth inhibition after 96 hrs by MTT assay; format: functional, cell-based; details: Cricetulus griseus
RT-112 [4] = assay: Antiproliferative activity against human RT112 cells expressing CYP1A1 assessed as growth inhibition after 96 hrs by MTT assay; format: functional, cell-based; details: RT-112, 96 h
CYP1A1 [5] = assay: Potentiation factor, ratio of IC50 for wild type CHO cells to IC50 of CHO cells expressing CYP1A1; format: ADME, cell-based, Cricetulus griseus; details: chinese hamster, wild type CHO cells and CHO cells expressing CYP1A1; read-out: Ratio IC50
CHO [6] = assay: Antiproliferative activity against CHO cells assessed as growth inhibition after 96 hrs by MTT assay; format: cell-based; details: Cricetulus griseus
RT-112 [7] = assay: Induction of cell death in human RT112 cells after 48 hrs at 0.5 to 5 uM by trypan blue assay; format: functional, cell-based
HEK293 [8] = assay: Induction of DNA damage in human HEK293 cells expressing CYP2W1 assessed as phosphorylation of gammaH2A.X at 0.5 to 5 uM after 48 hrs by Western blotting analysis; format: functional, cell-based
HEK293 [9] = assay: Induction of cell death in mock-transfected human HEK293 cells t 0.5 to 5 uM after 48 hrs by trypan blue assay; format: cell-based; details: hek293, 48 h
HEK293 [10] = assay: Induction of DNA damage in mock-transfected human HEK293 assessed as phosphorylation of gammaH2A.X at 0.5 to 5 uM after 48 hrs by Western blotting analysis; format: cell-based; details: hek293, 48 h
HEK293 [11] = assay: Induction of cell death in human HEK293 cells expressing CYP2W1 t 0.5 to 5 uM after 48 hrs by trypan blue assay; format: functional, cell-based
RT-112 [12] = assay: Induction of DNA damage in human RT112 cells assessed as phosphorylation of gammaH2A.X at 0.5 to 5 uM after 48 hrs by Western blotting analysis; format: functional, cell-based
[13] = Potentiation factor, ratio of IC50 for human EJ138 cells treated with extract obtained from 1 hr incubation of compound with control bactosome to IC50 of human EJ138 treated with extract obtained from 1 hr incubation of compound with CYP2D6 bactosome; format: functional
Liver = assay: Drug metabolism in mouse liver homogenate at 100 uM up tp 120 mins by LC/MS analysis; format: ADME, tissue-based; details: tissue homogenate, 2 h
[14] = Antiproliferative activity against human EJ138 cells after 96 hrs by MTT assay; format: functional, cell-based; details: EJ138, 96 h
[15] = Antiproliferative activity against human EJ138 cells treated with extract obtained from 1 hr incubation of compound with CYP1A1 bactosome measured after 96 hrs by MTT assay; format: functional, cell-based
[16] = Potentiation factor, ratio of IC50 for human EJ138 cells treated with extract obtained from 1 hr incubation of compound with control bactosome to IC50 of human EJ138 treated with extract obtained from 1 hr incubation of compound with CYP3A4 bactosome; format: functional
[17] = Drug metabolism in mouse liver microsomes at 100 uM after 2 hrs by HPLC/mass spectrometry analysis in presence of NADPH; format: ADME, Microsome
[18] = Antiproliferative activity against human EJ138 cells treated with extract obtained from 1 hr incubation of compound with CYP1A2 bactosome measured after 96 hrs by MTT assay; format: functional, cell-based
[19] = Potentiation factor, ratio of IC50 for human EJ138 cells treated with extract obtained from 1 hr incubation of compound with control bactosome to IC50 of human EJ138 treated with extract obtained from 1 hr incubation of compound with CYP1A1 bactosome; format: functional
[20] = Antiproliferative activity against human EJ138 cells treated with extract obtained from 1 hr incubation of compound with CYP1B1 bactosome measured after 96 hrs by MTT assay; format: functional, cell-based
[21] = Antiproliferative activity against human EJ138 cells treated with extract obtained from 1 hr incubation of compound with CYP2D6 bactosome measured after 96 hrs by MTT assay; format: functional, cell-based
[22] = Potentiation factor, ratio of IC50 for human EJ138 cells treated with extract obtained from 1 hr incubation of compound with control bactosome to IC50 of human EJ138 treated with extract obtained from 1 hr incubation of compound with CYP1B1 bactosome; format: functional
[23] = Potentiation factor, ratio of IC50 for human EJ138 cells treated with extract obtained from 1 hr incubation of compound with control bactosome to IC50 of human EJ138 treated with extract obtained from 1 hr incubation of compound with CYP1A2 bactosome; format: functional
[24] = Antiproliferative activity against human EJ138 cells treated with extract obtained from 1 hr incubation of compound with control bactosome measured after 96 hrs by MTT assay; format: functional, cell-based
[25] = Antiproliferative activity against human EJ138 cells treated with extract obtained from 1 hr incubation of compound with CYP3A4 bactosome measured after 96 hrs by MTT assay; format: functional, cell-based
HEK293 [26] = assay: Antiproliferative activity against human HEK293 cells assessed as growth inhibition after 96 hrs by MTT assay; format: cell-based; details: HEK293, 96 h

SMILES	selectivity ratio (CYP1A1 [1])	IC50 (HEK293 [2]) [µM]	IC50 (CHO [3]) [µM]	IC50 (RT-112 [4]) [µM]	selectivity ratio (CYP1A1 [5])	IC50 (CHO [6]) [µM]	further results
O=C(c1cc2cc(F)ccc2[nH]1)N1CC(CCl)c2c1ccc1[nH]ccc21 (stereo not drawn)	21	0.5	0.09	11.1	251	22.6	
O=C(c1cc2cc(O)ccc2[nH]1)N1CC(CCl)c2c1ccc1[nH]ccc21 (stereo not drawn)	0.8	20.5	0.3	32.7	11	3.3	
COc1cc2cc(C(=O)N3CC(CCl)c4c3ccc3[nH]ccc43)[nH]c2cc1OC (stereo not drawn)	1.3	6.1	< 0.001	0.3	> 3000	3	Activity (RT-112 [7]): Active; Activity (HEK293 [8]): Active; Activity (HEK293 [9]): Non-toxic; Activity (HEK293 [10]): Non-toxic; Activity (HEK293 [11]): Active; Activity (RT-112 [12]): Active
CS(=O)(=O)c1cc(F)cc2cc(C(=O)N3CC(CCl)c4c3ccc3[nH]ccc43)[nH]c12 (stereo not drawn)	0.9	12.2	4.1	7.7	0.8	3.2	
COc1ccc2[nH]c(C(=O)N3CC(CCl)c4c3ccc3[nH]ccc43)cc2c1 (stereo not drawn)	14.7	0.6	< 0.001	0.2	> 3200	3.2	Activity (RT-112 [7]): Active; Activity (HEK293 [8]): Active; Activity (HEK293 [9]): Non-toxic; Activity (HEK293 [10]): Non-toxic; Activity (HEK293 [11]): Active; Activity (RT-112 [12]): Active
O=C(c1cc2cc(F)cc(F)c2[nH]1)N1CC(CCl)c2c1ccc1[nH]ccc21 (stereo not drawn)	1.1	9.1	> 1	12.3	< 21	21	
O=C(c1cc2cc(F)c(F)cc2[nH]1)N1CC(CCl)c2c1ccc1[nH]ccc21 (stereo not drawn)	2.6	3.7	0.23	1.8	80	18.4	
COc1ccc2[nH]c(C(=O)N3CC(CCl)c4c3cc(O)c3ccccc43)cc2c1 (stereo not drawn)	0.2	641	102	151	1.9	194	
COc1ccc2[nH]c(C(=O)N3CC(CCl)c4c3ccc3ccccc43)cc2c1 (stereo not drawn)		> 50	0.96	> 50		> 50	Ratio IC50 [13]: 0.79; Drug metabolism (Liver): Active; IC50 [14]: 2.88 µM; IC50 [15]: 0.02 µM; Ratio IC50 [16]: 1.91; Drug metabolism [17]: Active; IC50 [18]: 2.23 µM; Ratio IC50 [19]: 100; IC50 [20]: 1.53 µM; IC50 [21]: 2.53 µM; Ratio IC50 [22]: 1.3; Ratio IC50 [23]: 0.9; IC50 [24]: 1.99 µM; IC50 [25]: 1.04 µM
COc1cc2cc(C(=O)N3CC(CCl)c4c3ccc3[nH]ccc43)[nH]c2c(OC)c1OC (stereo not drawn)	1.1	11.1	3.1	7	2.4	7.5	Activity (RT-112 [7]): Active; Activity (HEK293 [8]): Active; Activity (HEK293 [9]): Non-toxic; Activity (HEK293 [10]): Non-toxic; Activity (HEK293 [11]): Active; Activity (RT-112 [12]): Active
COc1ccc2[nH]c(C(=O)N3CC(CCl)c4c3cc(O)c3[nH]ccc43)cc2c1 (stereo not drawn)	1.2	0.000376	0.000624	0.000125	0.2	0.000167	IC50 (HEK293 [26]): 0.000453 µM
O=C(c1cc2cc(Cl)ccc2[nH]1)N1CC(CCl)c2c1ccc1[nH]ccc21 (stereo not drawn)	41.7	0.3	< 0.001	0.7	> 23200	23.2	
